Results as given in US9815878B2, “Use of PEDF-derived polypeptides for preventing and/or ameliorating skin aging” (MacKay Memorial Hospital, priority 2012, dated 2017).

Tests used:
[1] = tested on: Human dermal fibroblasts (WS-1 cells); assay: Cell migration of WS-1 cells, transwell assay; type: cell-based; settings: 100 nM for 24 hours, data not shown
Description: (§1) According to our preliminary study, cell viability was greater than 95% relative to that of the control after exposure to 15 mJ/cm^2 UVB irradiation (data not shown). […] Therefore, the exposure dose was set at 15 mJ/cm^2 in the following experiment.

[2] = tested on: primary mouse dermal fibroblasts; assay: Cell migration of primary mouse dermal fibroblasts, transwell assay; type: cell-based; settings: 100 nM for 24 hours, data not shown
[3] = tested on: Human dermal fibroblasts (WS-1 cells); assay: Cell viability of WS-1 cells pretreated with peptide; type: cell-based; settings: 100 nM for 24 hours, data not shown
Description: as §1

[4] = tested on: MMP-1; assay: UVB-induced MMP-1 protein expression in WS-1 cells, western blotting; type: cell-based, human; settings: for MMP-1 Expression Level (%): Vehicle/UVB set to 100%; for MMP-1 protein level relative to vehicle/UVB group: pre-incubation with peptide
Experimental: Human skin fibroblast WS-1 cell line was obtained from Food Industry Research and Development Institute (Hsin-Chu, Taiwan). The WS-1 cells were maintained in a 37° C., 5% CO2 humidified incubator as monolayers in culture flasks. They were grown in 10% FBS-DMEM supplemented with 2 mM L-glutamine, 0.1 mM non-essential amino acids, 1% penicillin/streptomycin. For passage, near-confluent cells were sub-cultured by 0.25% trypsin/EDTA.
(§2) Skin tissues were homogenized in ice-cold lysis buffer containing 20 mM HEPES (pH 7.4), 150 mM NaCl, 1% SDS, 1 mM ethylenediamine tetraacetic acid (EDTA), 5 mM phenylmethanesulfonyl fluoride (PMSF), and 1 mM dithiothreitol (DTT), 1% Triton X-100, with freshly added protease inhibitor cocktail (Roche, Indianapolis, Ind.). Homogenates were then centrifuged at 12,000 g for 30 minutes at 4° C., and supernatants were then collected and stored at −70° C. Protein contents in lysates were determined using the Bradford assay. Whole cell lysates were prepared using the above lysis buffer. Aliquots of the lysates were then resolved on a SDS-PAGE and then electrotransferred to polyvinylidene difluoride (PVDF) membranes (Millipore, Bedford, Mass., USA) and processed for immunoblot analysis.
(§3) Antibodies used in the immunoblot study included anti-type I collagen 1A1 antibody (1:1000 dilution), anti-MMP-1 antibody (1:500 dilution) and anti-β-actin antibody (1:10000 dilution). Proteins of interest were detected using the appropriate IgG-HRP secondary antibody and ECL reagent (Amersham, Arlington Heights, Ill., USA). X-ray films were scanned on a Model GS-700 Imaging Densitometer (Bio-Rad Laboratories, Hercules, Calif.) and analyzed using Labworks 4.0 software. For quantification, blots from at least three independent experiments were used.
WS-1 were seeded on a six-well plate at a density of 1×10^5 cells per well and grown in the 10% FBS-DMEM growth medium for 24 hours and then incubated with 1% FBS-DMEM supplemented with or without 100 nM PEDF peptide for further 24 hours. The cells were washed twice with phosphate buffered saline (PBS) and exposed to UVB radiation covered with PBS. The UVB treatment was conducted in a cell culture hood by using a UVB lamp (model XL-1000B, Spectrolinker™ Inc.) at a final dose of 15 mJ/cm^2 for about 100 seconds. Cell viability was assayed using trapan blue exclusion assay (>95%). After UVB irradiation, PBS was replaced with 1% FBS-DMEM with or without PEDF peptide for further 48 hours and then protein extracts were assayed by western blotting for the expression of MMP-1 protein. Cells that were not subjected to UVB irradiation were used as control (normal). The expression level of MMP-1 was normalized with the expression level in the Vehicle/UVB group (set to 100%), and quantitative results are summarized in Table 6.

[5] = tested on: primary mouse dermal fibroblasts; assay: Cell viability of primary mouse dermal fibroblasts pretreated with peptide; type: cell-based; settings: 100 nM for 24 hours, data not shown
Description: as §1

[6] = tested on: dermal fibroblasts; assay: Vimentin-positive fibroblast count in dermis of treated mice; type: in vivo, C57BL/6 mice; settings: ointment plus microneedle (MN), specimens from Example 2
Experimental: Collagen is the major matrix component of the dermis and forms a tough fiber framework to provide the elastic property of the skin. This working example investigated whether the present PEDF peptides increase dermal collage content. Mice depilated as described in Example 1 were randomly assigned to several experimental groups and treated as follows. For each mouse, one side of the dorsal midline (about 2 cm^2) received 50 μl of ointment (the 29-mer, 20-mer, or DMSO-containing ointment) and a subsequent microneedle treatment; while the other side of the dorsal midline (about 2 cm^2) received 50 μl of the same ointment without the microneedle treatment. The treatment was given twice a week for two weeks, and the skin was left uncovered and harvested 14 days after the first treatment. Skin specimens were stained with Masson's trichrome stain (blue) for dermal collagen; representative images are provided in FIG. 2. The stained collagen area in the skin was quantified as taught above in the “Materials and Methods” section, and the results were normalized with the area of Vehicle/MN. […]
Specimens from Example 2, above, were also stained for the fibroblast marker, vimentin, and the vimentin-positive cells were counted under microscope.

[7] = tested on: type I collagen (COL1A1); assay: Type I collagen (COL1A1) level in mouse skin by immunoblot; type: in vivo, C57BL/6 mice; settings: ointment plus microneedle (MN), twice a week for two weeks, day 14; normalized with vehicle/CT
Experimental: as §2
as §3, with “used. […]” for “used.”

[8] = 100 nM peptide 24 h before and 48 h after UVB 15 mJ/cm^2

| Substance | cell migration [1] | cell migration [2] | cell viability [3] | MMP-1 Expression Level (%) [4, 8] [%] | MMP-1 Expression Level (%) ([4]; 100 nM peptide, no UVB irradiation) | MMP-1 protein level relative to vehicle/UVB group [4] | cell viability [5] | Vimentin+ Cells per mm^2 [6] [Cells per mm^2] | COL1A1 Level (fold) [7] [fold] |
| --- | --- | --- | --- | --- | --- | --- | --- | --- | --- |
| Ac-SLGAEQRTESIIHRALYYDLISSPDIHGT-NH2 [29-mer] | did not cause any significant change in cell migration | did not cause any significant change in cell migration | did not cause any significant change in cell viability | 42 ± 3.3 | 5 ± 2.3 | about half | did not cause any significant change in cell viability | 1688 ± 197 | 1.7 ± 0.24 |
| SLGAEQRTESIIHRALYYDL [20-mer, synthetic peptide corresponding to residues 93-112 of human PEDF] |  |  |  | 50 ± 5.1 |  | about half |  | 1745 ± 143 | 1.8 ± 0.20 |
